# Laboratory results: PubChem BioAssay (NCI)
#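 Assay format: 96-well plates, 48-hour exposure. TGI: total growth inhibition.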
# Key:
# Experiment in all cases: DTP human tumour cell line panel, 48 h
# [1] = system: PC-3 prostate
# [2] = system: RXF 393 renal
# [3] = system: TK-10 renal
# [4] = system: SF-268 CNS
# [5] = system: MDA-MB-435
# [6] = system: UACC-257 melanoma
# [7] = system: T-47D breast
# [8] = system: HS 578T breast
# [9] = system: NCI-H23 lung
# [10] = system: MALME-3M melanoma
# [11] = system: HCT-116 colon
# [12] = system: BT-549 breast
# [13] = system: HL-60(TB) leukemia
# [14] = system: DU-145 prostate
# [15] = system: EKVX NSCLC
# [16] = system: SF-295 CNS
# [17] = system: COLO 205 colon
# [18] = system: OVCAR-3 ovarian
# [19] = system: NCI/ADR-RES ovarian
# [20] = system: LOX IMVI melanoma
# [21] = system: SK-MEL-2 melanoma
# [22] = system: CCRF-CEM leukemia
# [23] = system: OVCAR-8 ovarian
# [24] = system: NCI-H522 lung
# [25] = system: SK-MEL-28 melanoma
# [26] = system: SK-OV-3 ovarian
# [27] = system: MOLT-4 leukemia
# [28] = system: K-562 leukemia
# [29] = system: A498 renal
# [30] = system: NCI-H226 lung
# [31] = system: CAKI-1 renal
# [32] = system: ACHN renal
# [33] = system: UACC-62 melanoma
# [34] = system: 786-0 renal
# [35] = system: RPMI-8226 leukemia
# [36] = system: SN12C renal
# [37] = system: KM12 colon
# [38] = system: SW-620 colon
# [39] = system: SNB-75 CNS
# [40] = system: U251 CNS
# [41] = system: A549 NSCLC
# [42] = system: SF-539 CNS
# [43] = system: M14 melanoma
# [44] = system: IGROV1 ovarian
# [45] = system: HOP-62 NSCLC
# [46] = system: NCI-H460 lung
# [47] = system: OVCAR-4 ovarian
# [48] = system: OVCAR-5 ovarian
# [49] = system: MCF7 breast
# [50] = system: SNB-19 CNS
# [51] = system: MDA-MB-231 breast
# [52] = system: HCC-2998 colon
# [53] = system: MDA-N
# [54] = system: HCT-15 colon
# [55] = system: HT29 colon
# [56] = system: SK-MEL-5 melanoma
# [57] = system: HOP-92 NSCLC
# [58] = system: UO-31 renal
smiles,measurement,setting,value
O=C(N/N=C(/COc1ccccc1Cl)N=Cc1cccnc1)c1ccncc1,TGI,[1],> 100 µM
same,TGI,[2],> 100 µM
same,TGI,[3],> 100 µM
same,TGI,[4],> 100 µM
same,TGI,[5],> 100 µM
same,TGI,[6],> 100 µM
same,TGI,[7],> 100 µM
same,TGI,[8],> 100 µM
same,TGI,[9],> 100 µM
same,TGI,[10],> 100 µM
same,TGI,[11],> 100 µM
same,TGI,[12],> 100 µM
same,TGI,[13],> 100 µM
same,TGI,[14],> 100 µM
same,TGI,[15],> 100 µM
same,TGI,[16],> 100 µM
same,TGI,[17],> 100 µM
same,TGI,[18],> 100 µM
same,TGI,[19],> 100 µM
same,TGI,[20],> 100 µM
same,TGI,[21],> 100 µM
same,TGI,[22],> 100 µM
same,TGI,[23],> 100 µM
same,TGI,[24],> 100 µM
same,TGI,[25],> 100 µM
same,TGI,[26],> 100 µM
same,TGI,[27],> 100 µM
same,TGI,[28],> 100 µM
same,TGI,[29],> 100 µM
same,TGI,[30],> 100 µM
same,TGI,[31],> 100 µM
same,TGI,[32],> 100 µM
same,TGI,[33],> 100 µM
same,TGI,[34],> 100 µM
same,TGI,[35],> 100 µM
same,TGI,[36],> 100 µM
same,TGI,[37],> 100 µM
same,TGI,[38],> 100 µM
same,TGI,[39],> 100 µM
same,TGI,[40],> 100 µM
same,TGI,[41],> 100 µM
same,TGI,[42],> 100 µM
same,TGI,[43],> 100 µM
same,TGI,[44],> 100 µM
same,TGI,[45],> 100 µM
same,TGI,[46],> 100 µM
same,TGI,[47],> 100 µM
same,TGI,[48],> 100 µM
same,TGI,[49],> 100 µM
same,TGI,[50],> 100 µM
same,TGI,[51],> 100 µM
same,TGI,[52],> 100 µM
same,TGI,[53],> 100 µM
same,TGI,[54],> 100 µM
same,TGI,[55],> 100 µM
O=C1NC(N/N=C/c2c[nH]c3ccccc23)=N/C1=C\c1cccs1,TGI,[1],> 100 µM
same,TGI,[2],> 100 µM
same,TGI,[3],> 100 µM
same,TGI,[4],> 100 µM
same,TGI,[5],> 100 µM
same,TGI,[6],> 100 µM
same,TGI,[7],> 100 µM
same,TGI,[8],> 100 µM
same,TGI,[9],> 100 µM
same,TGI,[10],> 100 µM
same,TGI,[11],> 100 µM
same,TGI,[12],> 100 µM
same,TGI,[13],60.6 µM
same,TGI,[14],> 100 µM
same,TGI,[56],> 100 µM
same,TGI,[15],> 100 µM
same,TGI,[16],> 100 µM
same,TGI,[17],> 100 µM
same,TGI,[18],77.3 µM
same,TGI,[19],> 100 µM
same,TGI,[20],> 100 µM
same,TGI,[21],> 100 µM
same,TGI,[22],> 100 µM
same,TGI,[23],> 100 µM
same,TGI,[24],> 100 µM
same,TGI,[25],> 100 µM
same,TGI,[26],> 100 µM
same,TGI,[27],> 100 µM
same,TGI,[28],> 100 µM
same,TGI,[29],71.9 µM
same,TGI,[30],> 100 µM
same,TGI,[57],> 100 µM
same,TGI,[31],> 100 µM
same,TGI,[32],> 100 µM
same,TGI,[33],> 100 µM
same,TGI,[34],> 100 µM
same,TGI,[35],> 100 µM
same,TGI,[36],> 100 µM
same,TGI,[37],> 100 µM
same,TGI,[38],> 100 µM
same,TGI,[39],> 100 µM
same,TGI,[40],> 100 µM
same,TGI,[58],> 100 µM
same,TGI,[41],> 100 µM
same,TGI,[42],> 100 µM
same,TGI,[43],> 100 µM
same,TGI,[44],> 100 µM
same,TGI,[45],> 100 µM
same,TGI,[46],> 100 µM
same,TGI,[47],> 100 µM
same,TGI,[48],> 100 µM
same,TGI,[49],> 100 µM
same,TGI,[50],> 100 µM
same,TGI,[51],> 100 µM
same,TGI,[53],> 100 µM
same,TGI,[54],> 100 µM
same,TGI,[55],> 100 µM
